Test results reported in patent US12297207B2, “Maytansinoid derivatives, conjugates thereof, and methods of use” (priority 2015, dated 2025).
Read-outs that look alike come from different tables or passages of the source.

T1: human PRLR extracellular domain (hPRLR-MMH) (Homo sapiens, UniProt P16471)
T1 construct: human PRLR extracellular domain expressed with a C-terminal myc-myc-hexahistidine tag; myc-myc-hexahistidine (MMH) (C); made in house
T1 sequence (P16471 25-234 limits assumed): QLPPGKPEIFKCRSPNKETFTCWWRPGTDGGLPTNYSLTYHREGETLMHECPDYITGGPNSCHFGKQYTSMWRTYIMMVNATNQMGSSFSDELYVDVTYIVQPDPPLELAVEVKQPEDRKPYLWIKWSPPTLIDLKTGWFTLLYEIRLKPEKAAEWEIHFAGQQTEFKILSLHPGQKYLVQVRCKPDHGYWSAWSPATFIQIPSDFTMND


Columns and labels:
[1] = tested on: T47D ductal carcinoma line (PRLR+); test: In vitro cytotoxicity assay (CellTiter-Glo), T47D cells; type: cell-based, human; settings: for IC50: 5 days, corrected for payload equivalents, read-out: IC50 (cytotoxicity of T47D cells); for maximum percent killing: T47D cells
Protocol: The present example provides cytotoxicity assays for conjugates provided herein. To evaluate the ability of anti-PRLR antibodies conjugated with 63, 60, 77, and 78 to kill a PRLR expressing cell line, an in vitro cytotoxicity assay using a T47D ductal carcinoma line (ATCC, #HTB-133), which was previously determined to express >27,000 copies of human PRLR at its cell surface, was utilized.
For the assay, T47D cells were seeded onto white 96 well plates at 2,000 cells/well in media containing DMEM supplemented with 10% FBS, NEAA, and pencillin/streptomycinin (complete media). They were grown overnight at 37° C. in 5% CO2. To determine cell viability curves, the following day antibody drug conjugates, unconjugated antibodies, or free payloads were added to the cells at final serial dilutions ranging from 100 nM to 0.01 nM in complete medium and then incubated for an additional 5 days. Luciferase activity was detected after the addition of CellTiter-Glo™ reagent (Promega, G7571) to each well, which contains reagents to lyse the remaining viable cells to release their ATP, ATPase inhibitors to prevent degradation of the ATP, as well as luciferin and luciferase to catalyse the luminescent reaction. Viable cells prior to addition of CellTiter-Glo will be the only source of ATP since the dead cells in culture will not synthesis ATP and any of their released ATP will be destroyed via endogenous ATPases. Relative light units (RLUs) were measured on a Victor luminometer (PerkinElmer) and the results were determined using a four-parameter logistic equation over a 10-point response curve (GraphPad Prism). All measured values and calculated IC50 values were corrected for payload equivalents. All IC50 values are expressed in nM concentration and percent kill is reported for the highest concentration tested.

C4-2 (PSMA+) cells = test: In vitro cytotoxicity assay (CCK8 viability), C4-2 cells; type: cell-based
Protocol: (§1) In this Example, the ability of various antibody-drug conjugates or their associated payloads to kill antigen-expressing tumor cells in vitro was assessed.
(§2) Ovcar3 (Muc16+) or C4-2 (PSMA+) cells were seeded in 96 well plates at 3000 (C42) cells per well in complete growth media and grown overnight. For cell viability curves, serially diluted conjugates or payloads were added to the cells at final concentrations ranging from 300 nM to 5 pM and incubated for 3 days. To measure viability, cells were incubated with CCK8 (Dojindo) for the final 1-3 hours and the absorbance at 450 nm (OD450) was determined on a Victor (Perkin Elmer). Background OD450 levels determined from digitonin ([…]) treated cells were subtracted from all wells and viability is expressed as a percentage of the untreated controls. IC50 values were determined from a four-parameter logistic equation over a 10-point response curve (GraphPad Prism). All conjugate curves and IC50 values are corrected for payload equivalents.

Ovcar3 (Muc16+) cells = test: In vitro cytotoxicity assay (CCK8 viability), Ovcar3 cells; type: cell-based
Protocol: as §1, §2

[2] = molecular target: T1, human PRLR extracellular domain (hPRLR-MMH); test: Surface plasmon resonance (Biacore 3000) binding kinetics; settings: 25° C.
Protocol: Equilibrium dissociation constants (KD values) for human PRLR binding to purified anti-PRLR antibodies that were either unmodified H1H6958N2, PRLR-Q, and PRLR-Q-63 were determined using a real-time surface plasmon resonance biosensor using a Biacore 3000 instrument. The Biacore sensor surface was first derivatized by amine coupling with a monoclonal mouse anti-human Fc antibody (GE, #BR-1008-39) to capture anti-PRLR monoclonal antibodies. All binding studies were performed in 0.01M HEPES pH 7.4, 0.15M NaCl, 3 mM EDTA, and 0.05% v/v Surfactant Tween-20 (HBS-ET running buffer) at 25° C. and 37° C. Different concentrations of human PRLR extracellular domain expressed with a C-terminal myc-myc-hexahistidine tag (hPRLR-MMH; SEQ ID NO: 401 as described in patent application WO 2015026907 A1), in HBS-ET running buffer ([…]) were injected over the anti-PRLR antibody captured surface for 4 minutes at a flow rate of 50 μL/minute and their dissociation in HBS-ET running buffer was monitored for 8 minutes. Kinetic association rate constant (ka) and dissociation rate constant (kd) were determined by fitting the real-time sensorgrams to a 1:1 binding model using Scrubber 2.0c curve fitting software. Binding dissociation equilibrium constants (KD) and dissociative half-lives (t½) were calculated from the kinetic rate constants as: […]

[3] = C4-2 cells, 3 days, conjugate values corrected for payload equivalents, read-out: IC50
[4] = Table 2, payloads only, read-out: C4-2 IC50
[5] = Table 5, payloads only, read-out: C4-2 IC50
[6] = Ovcar-3 cells, 3 days, conjugate values corrected for payload equivalents, read-out: IC50
[7] = Table 2, payloads only, read-out: Ovcar3 IC50
[8] = Table 5, payloads only, read-out: Ovcar3 IC50

Molecule | IC50 [1] [nM] | maximum percent killing ([1]; highest concentration tested) [%] | IC50 (C4-2 (PSMA+) cells; [3]) [nM] | C4-2 % kill (C4-2 (PSMA+) cells; Table 2, payloads only) [%] | IC50 (C4-2 (PSMA+) cells; [4]) [nM] | C4-2 % kill (C4-2 (PSMA+) cells; Table 5, payloads only) [%] | IC50 (C4-2 (PSMA+) cells; [5]) [nM] | IC50 (Ovcar3 (Muc16+) cells; [6]) [nM] | Ovcar3 % kill (Ovcar3 (Muc16+) cells; Table 2, payloads only) [%] | IC50 (Ovcar3 (Muc16+) cells; [7]) [nM] | Ovcar3 % kill (Ovcar3 (Muc16+) cells; Table 5, payloads only) [%] | IC50 (Ovcar3 (Muc16+) cells; [8]) [nM] | T47D % kill ([1]; Table 5, payloads only, highest concentration tested) [%] | ka [2] [M⁻¹ s⁻¹] | kd [2] [s⁻¹] | 100 nM hPRLR-MMH Bound (RU) ([2]; antibody captured on anti-human Fc surface) | Kd ([2]; calculated from kinetic rate constants, read-out: KD) [nM] | Kd ([2]; read-out: KD value) [nM]
COc1cc2cc(c1Cl)N(C)C(=O)C[C@H](OC(=O)[C@H](C)N(C)C(=O)c1ccc(N)cc1)[C@]1(C)O[C@H]1[C@H](C)[C@@H]1C[C@@](O)(NC(=O)O1)[C@H](OC)/C=C/C=C(\C)C2 [Compound 27, Maytansin-N-methyl-L-alanine-4-aminobenzamide] | 0.1 | 67 | 0.2 | 84 | 0.2 | 84 | 0.2 | 0.06 | 92 | 0.09 | 92 | 0.09 | – | – | – | – | – | –
COc1cc2cc(c1Cl)N(C)C(=O)C[C@H](OC(=O)[C@H](C)N(C)C(=O)c1ccc(N)cc1F)[C@]1(C)O[C@H]1[C@H](C)[C@@H]1C[C@@](O)(NC(=O)O1)[C@H](OC)/C=C/C=C(\C)C2 [Compound 29, Maytansin-N-methyl-L-alanine-(2-fluoro-4-amino)benzamide] | 0.07 | 67 | – | 83 | 0.27 | 83 | 0.27 | – | 93 | 0.13 | 93 | 0.13 | 67 | – | – | – | – | –
COc1cc(N)ccc1C(=O)N(C)[C@@H](C)C(=O)O[C@H]1CC(=O)N(C)c2cc(cc(OC)c2Cl)C/C(C)=C/C=C/[C@@H](OC)[C@@]2(O)C[C@H](OC(=O)N2)[C@@H](C)[C@@H]2O[C@@]12C [Compound 33, Maytansin-N-methyl-L-alanine-(2-methoxy-4-amino)benzamide] | – | – | 0.55 | 86 | 0.45 | 86 | 0.45 | 0.11 | 93 | 0.2 | 93 | 0.2 | – | – | – | – | – | –
COc1cc2cc(c1Cl)N(C)C(=O)C[C@H](OC(=O)[C@H](C)N(C)C(=O)c1ccc(N)c(C(F)(F)F)c1)[C@]1(C)O[C@H]1[C@H](C)[C@@H]1C[C@@](O)(NC(=O)O1)[C@H](OC)/C=C/C=C(\C)C2 [Compound 35, Maytansin-N-methyl-L-alanine-N-(3-trifluoromethyl-4-amino)benzamide] | – | – | – | 84 | 0.004 | 84 | 0.004 | – | 93 | < 0.01 | 93 | < 0.01 | – | – | – | – | – | –
COc1cc2cc(c1Cl)N(C)C(=O)C[C@H](OC(=O)[C@H](C)N(C)C(=O)c1cc(F)c(N)cc1Cl)[C@]1(C)O[C@H]1[C@H](C)[C@@H]1C[C@@](O)(NC(=O)O1)[C@H](OC)/C=C/C=C(\C)C2 [Compound 37, Maytansin-N-methyl-L-alanine-N-(2-chloro-4-amino-5-fluoro)benzamide] | – | – | – | 86 | 0.01 | 86 | 0.01 | – | 94 | < 0.01 | 94 | < 0.01 | – | – | – | – | – | –
H1H6958N2 (antibody, V domains shown) VH: QVQLVESGGGVVQPGRSLRLSCGASGFTFRNYGMQWVRQGPGKGLEWVTLISFDGNDKYYADSVKGRFTISRDNSKNTLFLQMNSLRTEDTAVYYCARGGDFDYWGQGTLVTVSS VL: DIQMTQSPSSLSASVGDRVTITCRASQDIRKDLGWYQQKPGKAPKRLIYAASSLHSGVPSRFSGSGSGTEFTLTISSLQPEDFATYYCLQHNSYPMYTFGQGTKLEIK | – | – | – | – | – | – | – | – | – | – | – | – | – | 417000 | 0.000454 | 38 | 1.09 | 1.09
